Activity calls are given as the source filed them. The calls are words filed in the database; no cut-off is given here.
Tests used:
Bacteria [1] = assay: Inhibition of recombinant metallo-beta-lactamase IMP-1 (unknown origin) expressed in Escherichia coli BL21 (DE3) cells using cefazolin as substrate at 20 uM by spectrometric analysis relative to control
Bacteria [2] = assay: Inhibition of recombinant metallo-beta-lactamase ImiS (unknown origin) expressed in Escherichia coli BL21 (DE3) cells using meropenem as substrate at 20 uM by spectrometric analysis relative to control
Bacteria [3] = assay: Inhibition of recombinant metallo-beta-lactamase L-1 (unknown origin) expressed in Escherichia coli BL21 (DE3) cells using cefazolin as substrate at 20 uM by spectrometric analysis relative to control
Bacteria [4] = assay: Inhibition of recombinant serine beta lactamase KPC-2 (unknown origin) expressed in Escherichia coli BL21 (DE3) cells using meropenem as substrate at 20 uM by spectrometric analysis relative to control
Bacteria [5] = assay: Inhibition of recombinant serine beta lactamase OXA-48 (unknown origin) expressed in Escherichia coli BL21 (DE3) cells using meropenem as substrate at 20 uM by spectrometric analysis relative to control
[6] = target: Metallo-beta-lactamase type 2 (Bacteria, UniProt C7C422); assay: Inhibition of recombinant NDM-1 (unknown origin) expressed in Escherichia coli BL21 (DE3) cells using meropenem as substrate by spectrometric analysis
Chain of Metallo-beta-lactamase type 2 (C7C422 whole entry): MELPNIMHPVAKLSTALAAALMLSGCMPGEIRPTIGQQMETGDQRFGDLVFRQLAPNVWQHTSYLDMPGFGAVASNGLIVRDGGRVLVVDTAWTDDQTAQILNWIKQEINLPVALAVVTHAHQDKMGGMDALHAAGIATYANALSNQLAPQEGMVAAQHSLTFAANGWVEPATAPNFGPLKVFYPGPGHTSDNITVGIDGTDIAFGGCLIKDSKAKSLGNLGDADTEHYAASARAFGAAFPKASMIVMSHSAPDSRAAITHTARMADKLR

[7] = Inhibition of recombinant serine beta lactamase KPC-2 (unknown origin) expressed in Escherichia coli BL21 (DE3) cells using meropenem as substrate by spectrometric analysis; parameters: species or system Bacteria
[8] = Non-competitive inhibition of recombinant serine beta lactamase KPC-2 (unknown origin) expressed in Escherichia coli BL21 (DE3) cells using meropenem as substrate assessed as inhibition constant by Lineweaver-Burk plot analysis; parameters: species or system Bacteria
[9] = target: Metallo-beta-lactamase type 2 (Bacteria) (UniProt C7C422); assay: Inhibition of recombinant NDM-1 (unknown origin) expressed in Escherichia coli BL21 (DE3) cells assessed as reduction in residual activity incubated for 20 hrs; details: dose 0.3-5 µM
Chain of Metallo-beta-lactamase type 2 (Bacteria) (C7C422 whole entry): as above

Bacteria [10] = assay: Inhibition of recombinant IMP-1 (unknown origin) expressed in Escherichia coli BL21 (DE3) cells assessed as reduction in residual activity incubated for 20 hrs; details: dose 0.25-5 µM
Bacteria [11] = assay: Inhibition of recombinant metallo-beta-lactamase IMP-1 (unknown origin) expressed in Escherichia coli BL21 (DE3) cells using cefazolin as substrate assessed as reduction in residual activity; details: dose 0.075-20 µM
Bacteria [12] = assay: Inhibition of recombinant serine beta lactamase OXA-48 (unknown origin) expressed in Escherichia coli BL21 (DE3) cells assessed as reduction in residual activity incubated for 120 min; details: dose 0.3-5 µM
Bacteria [13] = assay: Inhibition of recombinant IMP-1 (unknown origin) expressed in Escherichia coli BL21 (DE3) cells assessed as maximal inhibition at 5 uM incubated for 10 hrs
Bacteria [14] = assay: Inhibition of recombinant serine beta lactamase KPC-2 (unknown origin) expressed in Escherichia coli BL21 (DE3) cells assessed as maximal inhibition at 5 uM incubated for 2.5 hrs
Bacteria [15] = assay: Inhibition of recombinant serine beta lactamase KPC-2 (unknown origin) expressed in Escherichia coli BL21 (DE3) cells using cefazolin as substrate assessed as reduction in residual activity; details: dose 0.075-20 µM
[16] = target: Metallo-beta-lactamase type 2 (Bacteria) (UniProt C7C422); assay: Inhibition of recombinant NDM-1 (unknown origin) expressed in Escherichia coli BL21 (DE3) cells using meropenem as substrate assessed as residual activity at 20 uM relative to control
Bacteria [17] = assay: Inhibition of recombinant metallo-beta-lactamase IMP-1 (unknown origin) expressed in Escherichia coli BL21 (DE3) cells using cefazolin as substrate assessed as residual activity at 20 uM relative to control
Escherichia coli [18] = assay: Synergistic antibacterial activity against Escherichia coli BL21 (DE3) harboring serine beta lactamase KPC-2 assessed as meropenem MIC at 64 microg/ml measured after 16 hrs by CLSI protocol based broth microdilution method (reference value: 16 microg/ml); type: functional; details: dose 64 µg/ml
Escherichia coli [19] = assay: Synergistic antibacterial activity against Escherichia coli BL21 (DE3) harboring serine beta lactamase OXA-48 assessed as meropenem MIC at 64 microg/ml measured after 16 hrs by CLSI protocol based broth microdilution method (reference value: 1 microg/ml); type: functional; details: dose 64 µg/ml
Escherichia coli [20] = assay: Synergistic antibacterial activity against Escherichia coli BL21 (DE3) harboring metallo-beta lactamase IMP-1 assessed as fold decrease in meropenem MIC at 64 microg/ml measured after 16 hrs by CLSI protocol based broth microdilution method; type: functional; details: dose 64 µg/ml
Escherichia coli [21] = assay: Synergistic antibacterial activity against Escherichia coli clinical isolate 04 assessed as fold decrease in meropenem MIC at 64 microg/ml measured after 16 hrs by CLSI protocol based broth microdilution method; type: functional; details: dose 64 µg/ml
Escherichia coli [22] = assay: Synergistic antibacterial activity against Escherichia coli BL21 (DE3) harboring NDM-1 assessed as decrease in bacterial colony at 128 microg/ml incubated for 12 hrs in presence of meropenem by imaging analysis; type: functional, organism-based; details: dose 128.0 µg/ml
Escherichia coli [23] = assay: Synergistic antibacterial activity against Escherichia coli BL21 (DE3) harboring metallo-beta-lactamase IMP-1 assessed as decrease in bacterial colony at 128 microg/ml incubated for 12 hrs in presence of meropenem by imaging analysis; type: functional, organism-based; details: dose 128.0 µg/ml
Escherichia coli [24] = assay: Synergistic antibacterial activity against Escherichia coli BL21 (DE3) harboring serine beta lactamase KPC-2 assessed as decrease in bacterial colony at 128 microg/ml incubated for 12 hrs in presence of meropenem by imaging analysis; type: functional, organism-based; details: dose 128.0 µg/ml
Escherichia coli [25] = assay: Antibacterial activity against Escherichia coli BL21 (DE3) harboring serine beta lactamase OXA-48 assessed as inhibition of bacterial growth upto 512 microg/ml by microdilution checkerboard assay; type: functional, organism-based; details: dose <= 512.0 µg/ml
Escherichia coli [26] = assay: Synergistic antibacterial activity against Escherichia coli BL21 (DE3) harboring NDM-1 assessed as reduction in meropenem MIC upto 256 microg/ml in presence of meropenem by microdilution checkerboard assay; type: functional, organism-based; details: dose <= 256.0 µg/ml
Escherichia coli [27] = assay: Synergistic antibacterial activity against Escherichia coli BL21 (DE3) harboring serine beta lactamase KPC-2 assessed as reduction in meropenem MIC upto 256 microg/ml in presence of meropenem by microdilution checkerboard assay; type: functional, organism-based; details: dose <= 256.0 µg/ml
Escherichia coli [28] = assay: Synergistic antibacterial activity against Escherichia coli BL21 (DE3) harboring serine beta lactamase OXA-48 assessed as reduction in meropenem MIC upto 256 microg/ml in presence of meropenem by microdilution checkerboard assay; type: functional, organism-based; details: dose <= 256.0 µg/ml
Escherichia coli [29] = assay: Synergistic antibacterial activity against Escherichia coli harboring NDM-1 infected in Kunming mouse model assessed as reduction in bacterial load in spleen at 20 mg/kg, ip co-administered with 10 mg/kg of meropenem; type: functional, organism-based
Escherichia coli [30] = assay: Synergistic antibacterial activity against Escherichia coli harboring serine beta-lactamase OXA-48 infected in Kunming mouse model assessed as reduction in bacterial load in spleen at 20 mg/kg, ip co-administered with 1 mg/kg of meropenem; type: functional, organism-based
Escherichia coli [31] = assay: Antibacterial activity against Escherichia coli harboring NDM-1 infected in Kunming mouse model assessed as reduction in bacterial load in liver at 20 mg/kg, ip; type: functional, organism-based
[32] = Cytotoxicity against mouse L929 cells assessed as cell viability upto 200 uM incubated for 48 hrs by CCK8 assay relative to control; type: toxicity, cell-based; details: read-out: Activity

Q: With `O=C(CCCc1ccccc1)NOC(=O)OCc1ccccc1` as the compound, how does the inhibition (Bacteria [1]) read?
A: > 90%

Q: What about the inhibition (Bacteria [2]) of the same compound?
A: < 42%

Q: What about the inhibition (Bacteria [3]) of the same compound?
A: < 42%

Q: What about the inhibition (Bacteria [4]) of the same compound?
A: > 90%

Q: And the inhibition (Bacteria [5])?
A: > 90%

Q: What about the IC50 [6] of the same compound?
A: 640 nM

Q: And the IC50 [7]?
A: 570 nM

Q: What about the Ki [8] of the same compound?
A: 550 nM

Q: And the inhibition [9]?
A: Dose-Dependent Effect

Q: And the inhibition (Bacteria [10])?
A: Dose-Dependent Effect

Q: And the inhibition (Bacteria [11])?
A: Dose-Dependent Effect

Q: What about the inhibition (Bacteria [12]) of the same compound?
A: Dose-Dependent Effect

Q: And the inhibition (Bacteria [13])?
A: Active

Q: And the inhibition (Bacteria [14])?
A: Active

Q: What about the inhibition (Bacteria [15]) of the same compound?
A: Dose-Dependent Effect

Q: What about the Activity [16] of the same compound?
A: < 10%

Q: What about the Activity (Bacteria [17]) of the same compound?
A: < 10%

Q: What about the MIC (Escherichia coli [18]) of the same compound?
A: 4 µg/mL

Q: And the MIC (Escherichia coli [19])?
A: 0.5 µg/mL

Q: What about the “fold change (FC)” value (Escherichia coli [20]) of the same compound?
A: 4

Q: What about the “fold change (FC)” value (Escherichia coli [21]) of the same compound?
A: 2

Q: What about the Activity (Escherichia coli [22]) of the same compound?
A: Active

Q: What about the Activity (Escherichia coli [23]) of the same compound?
A: Active

Q: What about the Activity (Escherichia coli [24]) of the same compound?
A: Active

Q: And the Activity (Escherichia coli [25])?
A: inactive

Q: And the Activity (Escherichia coli [26])?
A: Active

Q: What about the Activity (Escherichia coli [27]) of the same compound?
A: Active

Q: And the Activity (Escherichia coli [28])?
A: Active

Q: What about the Activity (Escherichia coli [29]) of the same compound?
A: Active

Q: What about the Activity (Escherichia coli [30]) of the same compound?
A: Active

Q: And the Activity (Escherichia coli [31])?
A: inactive

Q: And the viability at 48 h, up to 200 µM [32]?
A: > 80%
